biological target: T1, human FXR (NR1H4) (Homo sapiens, UniProt Q96RI1); assay: Human FXR (NR1H4) Assay (Gal4 promoter driven luciferase reporter, Indigo Bioscience kit IB00601); assay type: cell-based; conditions: FXR agonistic potency; CHO reporter cells expressing human NR1H4; 22 hours incubation; luciferase readout
T1 sequence (Q96RI1 1-486): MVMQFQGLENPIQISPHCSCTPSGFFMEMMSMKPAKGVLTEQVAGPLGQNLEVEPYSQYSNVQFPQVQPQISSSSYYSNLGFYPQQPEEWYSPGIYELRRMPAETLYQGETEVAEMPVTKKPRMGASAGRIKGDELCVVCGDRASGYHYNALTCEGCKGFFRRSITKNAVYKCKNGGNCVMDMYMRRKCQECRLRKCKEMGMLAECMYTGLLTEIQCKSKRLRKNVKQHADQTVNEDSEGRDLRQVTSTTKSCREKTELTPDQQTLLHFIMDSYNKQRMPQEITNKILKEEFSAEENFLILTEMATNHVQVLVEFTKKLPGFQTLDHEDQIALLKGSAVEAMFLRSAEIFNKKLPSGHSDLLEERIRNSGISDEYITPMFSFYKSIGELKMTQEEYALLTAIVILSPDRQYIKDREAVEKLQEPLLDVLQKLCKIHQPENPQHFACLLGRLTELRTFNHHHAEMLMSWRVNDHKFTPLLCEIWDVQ
From the text: Determination of a ligand mediated Gal4 promoter driven transactivation to quantify ligand binding mediated activation of FXR. FXR Reporter Assay kit purchased from Indigo Bioscience (Catalogue number: IB00601) to determine the potency and efficacy of compound developed by Enanta that can induce FXR activation. The principle application of this reporter assay system is to quantify functional activity of human FXR. The assay utilizes non-human mammalian cells, CHO (Chinese hamster ovary) cells engineered to express human NR1H4 protein (referred to as FXR). Reporter cells also incorporate the cDNA encoding beetle luciferase which catalyzes the substrates and yields photon emission. Luminescence intensity of the reaction is quantified using a plate-reading luminometer, Envision. Reporter Cells include the luciferase reporter gene functionally linked to an FXR responsive promoter. Thus, quantifying changes in luciferase expression in the treated reporter cells provides a sensitive surrogate measure of the changes in FXR activity. […] The assay is according to the manufacturer's instructions. In brief, the assay was performed in white, 96 well plates using final volume of 100 uL containing cells with different doses of compounds. Retrieve Reporter Cells from −80° C. storage. Perform a rapid thaw of the frozen cells by transferring a 10 ml volume of 37° C. cell recovery medium into the tube of frozen cells. Recap the tube of Reporter Cells and immediately place it in a 37° C. water bath for 5-10 minutes. Retrieve the tube of Reporter Cell Suspension from the water bath. Sanitize the outside surface of the tube with a 70% alcohol swab, and then transfer it into the cell culture hood. Dispense 90 μl of cell suspension into each well of the 96-well Assay Plate. Transfer the plate into 37° C. incubator, allowing the cells adherent to the bottom of the well. Dilute compounds in Dilution Plate (DP), and administrate to cells at Assay Plate (AP). DMSO content of the samples was kept at 0.2%. Cells were incubated for additional 22 hours before luciferase activities were measured. Thirty minutes before intending to quantify FXR activity, remove Detection Substrate and Detection Buffer from the refrigerator and place them in a low-light area so that they may equilibrate to room temperature. Remove the plate's lid and discard all media contents by ejecting it into an appropriate waste container. Gently tap the inverted plate onto a clean absorbent paper towel to remove residual droplets. Cells will remain tightly adhered to well bottoms. Add 100 μl of luciferase detection reagent to each well of the assay plate. Allow the assay plate to rest at room temperature for at least 5 minutes following the addition of LDR. Set the instrument (Envision) to perform a single 5 second “plate shake” prior to reading the first assay well. Read time may be 0.5 second (500 mSec) per well.

SMILES	EC50 [nM]
CC[C@H]1[C@@H](O)[C@@H]2[C@H](C[C@H](O)[C@]3(C)[C@@H]([C@H](C)COC(=O)NS(=O)(=O)c4ccc(OC(C)C)cc4)CC[C@@H]23)[C@@]2(C)CC[C@@H](O)C[C@@H]12 [Example 31]	> 100
CC[C@H]1[C@@H](O)[C@@H]2[C@H](C[C@H](O)[C@]3(C)[C@@H]([C@H](C)COC(=O)NS(=O)(=O)c4ccc5c(c4)CCC(C)(C)O5)CC[C@@H]23)[C@@]2(C)CC[C@@H](O)C[C@@H]12 [Example 32]	> 100
CC[C@H]1[C@@H](O)[C@@H]2[C@H](CC[C@]3(C)[C@@H]([C@H](C)COC(=O)NS(=O)(=O)c4ccc5c(c4)CCC(C)(C)O5)CC[C@@H]23)[C@@]2(C)CC[C@H](O)C[C@@H]12 [Example 33]	< 1
CC[C@H]1[C@@H](O)[C@@H]2[C@H](CC[C@]3(C)[C@@H]([C@H](C)COC(=O)NS(=O)(=O)c4ccc5c(c4)CCC(C)(C)O5)CC[C@@H]23)[C@@]2(C)CCC(=O)C[C@@H]12 [Example 34]	< 1
